US11485762B2, “Compositions and methods for inhibition of L-plastin activity in osteoclasts to reduce bone loss” (University of Maryland, Baltimore, priority 2017, dated 2022)

Key:
osteoclasts = assay: F-actin content by rhodamine phalloidin binding; format: cell-based, mouse; conditions: sNT-LPL peptides; compared with P2, P5, and P6
Description: For the measurement of F-actin, osteoclasts transduced with TAT-LPL peptides of interest for 15 to 30 minutes were re-plated on dentine slices for 3 to 4 hours or 10-12 hours, respectively, in the presence of indicated TAT-fused peptides of interest and TNF-α. For each treatment four to six wells in 24 well, culture dishes were used. Cells were fixed and rhodamine phalloidin binding to F-actin was done as described (Chellaiah et al., 2000, J. Cell Biol., 148: 665-678; Chellaiah et al., 2000, J. Biol. Chem., 275: 11993-12002: Chellaiah et at, 2007, J. Biol. Chem., 282: 10104-10116),
Osteoclasts were transduced with LPL and control peptides. For each treatment four to six wells in 24 well culture dishes were used. Cells were fixed and rhodamine phalloidin binding to F-actin was done as described (Chellaiah et al., 1998, J. Biol. Chem., 273: 11908-11916; Chellaiah et al., 1996, Mol. Biol. Cell, 7: 743-753).

endogenous LPL = assay: Phosphorylation of endogenous (cellular) LPL in osteoclasts (LPL immunoprecipitation, p-Serine immunoblot); format: cell-based, mouse; conditions: sNT-LPL peptides, 3-4 hours, bone particles and TNF-α
Description: Bone particles (60-80 μm in size) were prepared as described previously (Ma et at, 2010, J. Biol. Chem., 285: 29911-29924). After flushing the marrow cells for osteoclast differentiation as described above, long bones of mice (free of cells inside and muscles outside) were washed extensively with PBS and kept in ethanol until use. Long bones were air-dried in the hood and homogenized by a mini blender. Bone particles were sieved and used for experiments. Multinucleated osteoclasts were seen from day four onward. At this time cultures were added with bone particles (100 μg/ml media) for 3-4 hours or 12-14 hours in the presence of TNF-α (20 ng/ml). Some cultures were treated with 3-5 μg/ml TNFR1 antibody. Osteoclasts were preincubated with the TNFR1 antibody for 60-90 minutes before the addition of TNF-α to enhance the blocking effect. Osteoclasts incubated with bone particles for 3-4 or 12-14 hours in the presence of TNF-α were used for lysate preparations.
The vector pTAT-HA has an N-terminal 6-histidine leader (Nagahara et al., 1998, Nature Medicine, 4:1449-1452). […] For transduction with TAT-fused peptides (100-150 nM), osteoclasts were first kept in serum-free α-MEM for two hours. Afterward, TAT proteins of interest, bone particles, and TNF-α were added to cells in serum-free α-MEM Lysates were made from these cells for immunoprecipitation and immunoblotting analyses. Osteoclasts plated on dentine slices in the presence of TAT-proteins of interest and TNF-α for 3-6 hours or 12-14 hours were used for immunostaining or actin staining analyses. Osteoclast cultures treated only with TNF-α were used as controls.
Following various treatments, osteoclasts were washed three-times with cold PBS and lysed in a radioimmune precipitation buffer (RIPA; 10 mM Tris-HCl, pH 7.2, 150 mM NaCl, 1% deoxycholate, 1% Triton X-100, 0.1% SDS, 1% aprotinin, 2 mM PMSF, […], and 1% aprotinin). Cells were rocked on ice for 15 minutes and scraped off with a cell scraper. Cell lysates were centrifuged at 15,000 rpm for 5 minutes at 4° C., and the supernatant was saved. Protein contents were measured using Bio-Rad protein assay reagent. Equal amounts of lysate proteins (100-150 μg) were used for immunoprecipitations. Immunoprecipitations and Western blotting were done as described previously (Chellaiah et al., 1998, J. Biol. Chem., 273: 11908-11916; Chellaiah et al., 1996, Mol. Biol. Cell, 7: 743-753).
After cells were kept in the serum-free α-MEM medium for two hours, LPL peptides of interest were added to a final concentration of 100-150 nM to cells in serum-free media (Chellaiah et al, 2000, J. Biol. Chem., 275: 11993-12002). Osteoclasts transduced with peptides of interest and added with bone particles in the presence of TNF-α for 3-4 hours or 12-14 hours were used for lysate preparations. Cells plated on coverslips and treated with peptides were used for actin staining to detect podosomes. After transduction for 30 min., osteoclasts were re-plated on dentine slices with respective LPL peptide and TNF-α for 3-6 hours or 12-14 hours. These cells were used for Actin staining with rhodamine-phalloidin or immunostaining analyses (Chellaiah et al., 2000, J. Biol. Chem., 275: 11993-12002; Chellaiah et al., 2000, J. Cell. Biol., 148: 665-678; Chellaiah et al., 2003, J Biol Chem 278: 29086-29097).
Following various treatments, osteoclasts were washed three times with cold PBS and lysed in a Triton-containing lysis buffer as described (Chellaiah et al., 1996, Mol. Biol. Cell, 7: 743-753). Cells were rocked on ice for 15 minutes, and scraped off with a cell scraper. Cell lysates were centrifuged at 15,000 rpm for 5 minutes, at 4° C., and the supernatant was saved. Protein contents were measured using Bio-Rad protein assay reagent. Osteoclast cultures were also subjected to a trypan blue dye (Sigma T8154) exclusion test to determine the viability of osteoclasts after various treatments. […]

| Sequence | F-actin level (osteoclasts) | inhibitory effect on the phosphorylation of cellular LPL (endogenous LPL) |
| --- | --- | --- |
| MARGAVSDEE [Peptide P3, TAT-fused sNT-LPL peptide, Ser-5 substituted with Ala (A5S7)] | decreased | varied inhibitory effects |
| MARGSVADEE [Peptide P4, TAT-fused sNT-LPL peptide, Ser-7 substituted with Ala (S5A7)] | decreased | varied inhibitory effects |
